The results in this text go back to US8088366B2, “Attractant for Indian meal moth larve” (The United States of America, as represented by the …, priority 2009, dated 2012).

The subject of test [1] is Plodia interpunctella larvae (0.6 mg penultimate instar to mid-last instar). The experiment in a line: Bioassay chamber choice test of larval attraction, older larvae (early penultimate, newly molted last and mid-last instar). It is filed as in vivo. An excerpt: (§1) To isolate the attractant, the inventors bioassayed multiple materials that potentially comprised effective attractants. The bioassay chamber 10 was comprised of a Lincoln Wear-Ever (Fort Wayne, Ind.) baking pan (No. 9002) having the dimensions of 65 cm long, 45 cm wide and 2.5 cm high. A similarly sized Carb-x plastic top 12 (Rubbermaid Commercial Products Inc., Winchester, Va.) was modified for this application. (Note that FIG. 1 is a (top) plan view so that only the Carb-x plastic top 12 of the bioassay chamber is shown.)
The rows of three holes were ˜8 cm from the outer edge at the ends and ˜10 cm from the outer edge on the two sides, which spaced the three holes ˜12.5 cm apart, center to center. A 3.0 cm diameter hole 16 was drilled in the center of the top 12 to accept a bulkhead fitting 18 (# 16422, United States Plastic Corp., Lima, Ohio) complete with a right angle connection and a serrated vacuum hose 20. During the bioassay process, air was drawn into the chamber 10 through the six air inlet holes 14 and removed from the chamber 10 through the fitting 18 and vacuum hose 20 in the direction of the arrow 22.
Before each bioassay, the chambers 10 were washed with a dilute solution of Micro-90 detergent (International Products Corp, Burlington, N.J.), rinsed 3 times with tap water, 1 time with distilled water, 1 time with MeOH and air dried. Test samples were placed in flat polypropylene weigh boats. An individual sample was positioned at each end of the chamber 10 under the middle air inlets.
The six air inlet holes 14 were fitted with syringe ports (Part # MTL230-6, Value Plastics, Inc., Fort Collins, Colo.) and six 10 cc syringes 24 filled with activated charcoal were affixed. Low-density foam weather strip (6.3 mm thick×12.7 mm wide, not shown in FIG. 1) was attached along the four edges of the top 12 to form an airtight seal when placed on the bottom pan and tightened together with four Sparco Binder Clips, # 87010 (2″ wide, 1″ capacity) 26. A vacuum means (not shown) was attached to the vacuum hose 20 was adjusted to give an exit flow of ˜53 cc/min or one chamber volume (˜2.41) exchange every 45 min during the bioassay.
In addition to neonates, three other age groups of larvae were selected from the standardized cultures for bioassay to determine if they were attracted to the wheat grain and its components. These groups included newly molted penultimate instar (0.6±0.1 mg), newly molted last instar (3.2±0.2 mg) and mid-last instar (7.8±0.8 mg) (see Silhacek and Miller, 1972). In these assays, 10 larvae of the specified age, stage and weight range were transferred to the 16 mm sample cup at the beginning of the scotophase and immediately placed at the release point in the equilibrated bioassay chamber. The cover was secured to the chamber bottom and the larvae were given three hours to select the sample of choice and then the larvae on each sample were counted.
In the first set of tests, the relative attractiveness of the three major, commercially available kernel tissue fractions of wheat were assessed. The tissues were crude bran (Flint River Mills, Bainbridge, Ga.), Kretschmer's toasted wheat germ (Quaker Oats Co., Chicago, Ill.) and endosperm (organically grown, unbleached, unenriched all-purpose flour, Wards Super Market, Gainesville, Fla.).
The attractiveness of whole kernel wheat volatiles was examined by suspending a packet of whole wheat in the air stream entering the bioassay chamber over a sample of NASE. […]

Test [2] concerns Plodia interpunctella neonatal larvae. Briefly: Bioassay chamber choice test of larval attraction, neonatal larvae. The test is classed as in vivo. To be noted: serially diluted, bioassayed over the range of 16 pg to 500 pg on 3MM pad; FIGS. 7 and 8.
Text: as §1
The rows of three holes were ˜8 cm from the outer edge at the ends and ˜10 cm from the outer edge on the two sides, which spaced the three holes ˜12.5 cm apart, center to center. […]
Plodia larvae used in this study were reared on a standardized Plodia diet (Silhacek and Miller, 1972) at 30° C., 70% r.h. and a 16L:8D photoperiod as described previously (Silhacek et al, 2003) using eggs collected over a 1 h interval during the 2 h period preceding the scotophase. […] The samples were then removed, mixed with Plodia diet and the larvae counted after two days of additional growth.
In the first set of tests, the relative attractiveness of the three major, commercially available kernel tissue fractions of wheat were assessed. […]

For the molecule `CCCCCc1ccco1` [2-pentyl furan], the “attraction of older larvae at 31 pg” value in test [1] (31 pg on 3MM scintillation pad, three older age groups) is recorded as “Moderate but not significant attraction”. Also, the “attraction of older larvae at 250-500 pg” value in test [1] (250-500 pg, some larvae captured in non-attractive NASE sample) was “Strong attraction”. Also, in test [1] (all larval stages of Plodia), the “attraction of all larval stages when bioassayed” value is listed as “attracted to picogram quantities”. For the same molecule, the “amount range of peak attraction of older larvae” value in test [1] (three older age groups, amount on 3MM pad) is 62.5 to 125 pg. Also, the “larval attraction by stage of development” value in test [1] (through the middle (7.0-8.5 mg) of the final larval instar) was “strong”. Further, the attractancy to neonates result in test [2] was “attractive at all levels tested between 32 and 500 pg”.
With `CCCCCC=O` [Hexanal, reference compound], in test [2], the attractancy to neonates result was “not attractive”.
